Columns and labels:
Test in all cases: relative viability vs DMSO control (72 h) (fraction); higher = more viable cells
SK-LMS-1 = system: SK-LMS-1
Method in brief: (§1)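 Sarcoma cell lines were plated in 384 wells to reach 80–90% confluence, treated after 24 h with 2.5 µl of serially diluted compound and held 72 h at 37 °C, 5% CO2. Relative viability was taken as percent growth from ATPLite readings, averaged over up to triplicate wells. The values were rescaled so that 1 marks full and 0 marks none.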

VA-ES-BJ = system: VA-ES-BJ
Method in brief: as §1

KHOS-240S = system: KHOS-240S
Method in brief: as §1

A204 = system: A204
Method in brief: as §1

MES-SA = system: MES-SA
Method in brief: as §1

SW1353 = system: SW1353
Method in brief: as §1

SK-ES-1 = system: SK-ES-1
Method in brief: as §1

RD = system: RD
Method in brief: as §1

SW872 = system: SW872
Method in brief: as §1

G401 = system: G401
Method in brief: as §1

HS729 = system: HS729
Method in brief: as §1

SW982 = system: SW982
Method in brief: as §1

CO[C@H]1C[C@@H]2CC[C@@H](C)[C@@](O)(O2)C(=O)C(=O)N2CCCC[C@H]2C(=O)O[C@H]([C@H](C)C[C@@H]2CC[C@@H](OCCO)[C@H](OC)C2)CC(=O)[C@H](C)/C=C(\C)[C@@H](O)[C@@H](OC)C(=O)[C@H](C)C[C@H](C)/C=C/C=C/C=C/1C [Certican]
Settings	relative viability
A204, 0.00017 µM	0.919
A204, 0.00051 µM	0.793
A204, 0.00152 µM	0.657
A204, 0.00457 µM	0.619
A204, 0.01372 µM	0.591
A204, 0.04115 µM	0.517
A204, 0.1235 µM	0.498
A204, 0.3704 µM	0.485
A204, 1.111 µM	0.487
A204, 3.333 µM	0.45
A204, 10 µM	0.43
G401, 0.00017 µM	0.9112
G401, 0.00051 µM	0.873
G401, 0.00152 µM	0.846
G401, 0.00457 µM	0.825
G401, 0.01372 µM	0.784
G401, 0.04115 µM	0.757
G401, 0.1235 µM	0.729
G401, 0.3704 µM	0.701
G401, 1.111 µM	0.683
G401, 3.333 µM	0.668
G401, 10 µM	0.642
HS729, 0.00017 µM	0.907
HS729, 0.00051 µM	0.943
HS729, 0.00152 µM	0.896
HS729, 0.00457 µM	0.835
HS729, 0.01372 µM	0.903
HS729, 0.04115 µM	0.829
HS729, 0.1235 µM	0.828
HS729, 0.3704 µM	0.808
HS729, 1.111 µM	0.821
HS729, 3.333 µM	0.828
HS729, 10 µM	0.891
KHOS-240S, 0.00017 µM	1.05
KHOS-240S, 0.00051 µM	1.01
KHOS-240S, 0.00152 µM	0.935
KHOS-240S, 0.00457 µM	0.889
KHOS-240S, 0.01372 µM	0.851
KHOS-240S, 0.04115 µM	0.845
KHOS-240S, 0.1235 µM	0.815
KHOS-240S, 0.3704 µM	0.786
KHOS-240S, 1.111 µM	0.784
KHOS-240S, 3.333 µM	0.75
KHOS-240S, 10 µM	0.717
MES-SA, 0.00017 µM	0.862
MES-SA, 0.00051 µM	0.803
MES-SA, 0.00152 µM	0.608
MES-SA, 0.00457 µM	0.489
MES-SA, 0.01372 µM	0.422
MES-SA, 0.04115 µM	0.398
MES-SA, 0.1235 µM	0.378
MES-SA, 0.3704 µM	0.373
MES-SA, 1.111 µM	0.377
MES-SA, 3.333 µM	0.358
MES-SA, 10 µM	0.332
RD, 0.00017 µM	1.09
RD, 0.00051 µM	1.09
RD, 0.00152 µM	0.964
RD, 0.00457 µM	0.888
RD, 0.01372 µM	0.848
RD, 0.04115 µM	0.8231
RD, 0.1235 µM	0.773
RD, 0.3704 µM	0.7358
RD, 1.111 µM	0.73
RD, 3.333 µM	0.71
RD, 10 µM	0.657
SK-ES-1, 0.00017 µM	1
SK-ES-1, 0.00051 µM	1.01
SK-ES-1, 0.00152 µM	0.983
SK-ES-1, 0.00457 µM	0.774
SK-ES-1, 0.01372 µM	0.694
SK-ES-1, 0.04115 µM	0.648
SK-ES-1, 0.1235 µM	0.592
SK-ES-1, 0.3704 µM	0.55
SK-ES-1, 1.111 µM	0.552
SK-ES-1, 3.333 µM	0.533
SK-ES-1, 10 µM	0.499
SK-LMS-1, 0.00017 µM	1
SK-LMS-1, 0.00051 µM	0.894
SK-LMS-1, 0.00152 µM	0.759
SK-LMS-1, 0.00457 µM	0.661
SK-LMS-1, 0.01372 µM	0.631
SK-LMS-1, 0.04115 µM	0.571
SK-LMS-1, 0.1235 µM	0.549
SK-LMS-1, 0.3704 µM	0.572
SK-LMS-1, 1.111 µM	0.564
SK-LMS-1, 3.333 µM	0.5489
SK-LMS-1, 10 µM	0.512
SW872, 0.00017 µM	0.922
SW872, 0.00051 µM	0.774
SW872, 0.00152 µM	0.6659
SW872, 0.00457 µM	0.645
SW872, 0.01372 µM	0.611
SW872, 0.04115 µM	0.592
SW872, 0.1235 µM	0.574
SW872, 0.3704 µM	0.561
SW872, 1.111 µM	0.567
SW872, 3.333 µM	0.584
SW872, 10 µM	0.584
SW982, 0.00017 µM	1
SW982, 0.00051 µM	0.882
SW982, 0.00152 µM	0.79
SW982, 0.00457 µM	0.756
SW982, 0.01372 µM	0.728
SW982, 0.04115 µM	0.68
SW982, 0.1235 µM	0.679
SW982, 0.3704 µM	0.645
SW982, 1.111 µM	0.618
SW982, 3.333 µM	0.599
SW982, 10 µM	0.604
SW1353, 0.00017 µM	0.915
SW1353, 0.00051 µM	0.875
SW1353, 0.00152 µM	0.855
SW1353, 0.00457 µM	0.772
SW1353, 0.01372 µM	0.76
SW1353, 0.04115 µM	0.746
SW1353, 0.1235 µM	0.708
SW1353, 0.3704 µM	0.71
SW1353, 1.111 µM	0.696
SW1353, 3.333 µM	0.677
SW1353, 10 µM	0.6966
VA-ES-BJ, 0.00017 µM	0.934
VA-ES-BJ, 0.00051 µM	0.855
VA-ES-BJ, 0.00152 µM	0.643
VA-ES-BJ, 0.00457 µM	0.604
VA-ES-BJ, 0.01372 µM	0.529
VA-ES-BJ, 0.04115 µM	0.494
VA-ES-BJ, 0.1235 µM	0.482
VA-ES-BJ, 0.3704 µM	0.478
VA-ES-BJ, 1.111 µM	0.468
VA-ES-BJ, 3.333 µM	0.47
VA-ES-BJ, 10 µM	0.46

CC1(COc2ccc3c(c2)ncn3-c2ccc3cccc(N4CCC(N)CC4)c3n2)COC1 [Crenolanib]
Settings	relative viability
A204, 0.00017 µM	1.085
A204, 0.00051 µM	1.07
A204, 0.00152 µM	1.08
A204, 0.00457 µM	1.05
A204, 0.01372 µM	1.01
A204, 0.04115 µM	0.819
A204, 0.1235 µM	0.594
A204, 0.3704 µM	0.457
A204, 1.111 µM	0.403
A204, 3.333 µM	0.326
A204, 10 µM	0.016
G401, 0.00017 µM	0.968
G401, 0.00051 µM	0.935
G401, 0.00152 µM	0.951
G401, 0.00457 µM	0.942
G401, 0.01372 µM	0.955
G401, 0.04115 µM	0.981
G401, 0.1235 µM	0.972
G401, 0.3704 µM	0.99
G401, 1.111 µM	0.95
G401, 3.333 µM	0.934
G401, 10 µM	0.0201
HS729, 0.00017 µM	0.96
HS729, 0.00051 µM	0.973
HS729, 0.00152 µM	1.03
HS729, 0.00457 µM	0.992
HS729, 0.01372 µM	1.01
HS729, 0.04115 µM	0.98
HS729, 0.1235 µM	0.97
HS729, 0.3704 µM	1.01
HS729, 1.111 µM	1.034
HS729, 3.333 µM	0.983
HS729, 10 µM	0.901
KHOS-240S, 0.00017 µM	0.97
KHOS-240S, 0.00051 µM	0.957
KHOS-240S, 0.00152 µM	1.01
KHOS-240S, 0.00457 µM	1.02
KHOS-240S, 0.01372 µM	1.01
KHOS-240S, 0.04115 µM	1.023
KHOS-240S, 0.1235 µM	0.986
KHOS-240S, 0.3704 µM	0.963
KHOS-240S, 1.111 µM	0.844
KHOS-240S, 3.333 µM	0.476
KHOS-240S, 10 µM	0.134
MES-SA, 0.00017 µM	0.919
MES-SA, 0.00051 µM	0.919
MES-SA, 0.00152 µM	0.9274
MES-SA, 0.00457 µM	0.971
MES-SA, 0.01372 µM	0.9531
MES-SA, 0.04115 µM	0.94
MES-SA, 0.1235 µM	0.98
MES-SA, 0.3704 µM	1.05
MES-SA, 1.111 µM	1.03
MES-SA, 3.333 µM	0.475
MES-SA, 10 µM	0.0499
RD, 0.00017 µM	1.02
RD, 0.00051 µM	1.05
RD, 0.00152 µM	1.04
RD, 0.00457 µM	1.05
RD, 0.01372 µM	1.07
RD, 0.04115 µM	1.05
RD, 0.1235 µM	1.06
RD, 0.3704 µM	1.1
RD, 1.111 µM	1.11
RD, 3.333 µM	0.955
RD, 10 µM	0.02007
SK-ES-1, 0.00017 µM	0.997
SK-ES-1, 0.00051 µM	0.993
SK-ES-1, 0.00152 µM	1.01
SK-ES-1, 0.00457 µM	1.05
SK-ES-1, 0.01372 µM	1.02
SK-ES-1, 0.04115 µM	1.02
SK-ES-1, 0.1235 µM	1.014
SK-ES-1, 0.3704 µM	0.949
SK-ES-1, 1.111 µM	0.675
SK-ES-1, 3.333 µM	0.188
SK-ES-1, 10 µM	0.0214
SK-LMS-1, 0.00017 µM	0.98
SK-LMS-1, 0.00051 µM	1.05
SK-LMS-1, 0.00152 µM	1.036
SK-LMS-1, 0.00457 µM	1.04
SK-LMS-1, 0.01372 µM	1.03
SK-LMS-1, 0.04115 µM	1.03
SK-LMS-1, 0.1235 µM	1.07
SK-LMS-1, 0.3704 µM	1.02
SK-LMS-1, 1.111 µM	0.967
SK-LMS-1, 3.333 µM	0.8
SK-LMS-1, 10 µM	0.0424
SW872, 0.00017 µM	1.03
SW872, 0.00051 µM	1.01
SW872, 0.00152 µM	1.03
SW872, 0.00457 µM	1.06
SW872, 0.01372 µM	1.05
SW872, 0.04115 µM	1.02
SW872, 0.1235 µM	1.01
SW872, 0.3704 µM	0.988
SW872, 1.111 µM	0.95
SW872, 3.333 µM	0.786
SW872, 10 µM	0.0216
SW982, 0.00017 µM	0.937
SW982, 0.00051 µM	0.9575
SW982, 0.00152 µM	0.947
SW982, 0.00457 µM	0.974
SW982, 0.01372 µM	0.965
SW982, 0.04115 µM	0.971
SW982, 0.1235 µM	0.969
SW982, 0.3704 µM	0.952
SW982, 1.111 µM	0.679
SW982, 3.333 µM	0.352
SW982, 10 µM	0.0115
SW1353, 0.00017 µM	0.968
SW1353, 0.00051 µM	0.959
SW1353, 0.00152 µM	0.938
SW1353, 0.00457 µM	0.97
SW1353, 0.01372 µM	0.949
SW1353, 0.04115 µM	0.917
SW1353, 0.1235 µM	0.92
SW1353, 0.3704 µM	0.84
SW1353, 1.111 µM	0.813
SW1353, 3.333 µM	0.683
SW1353, 10 µM	0.009
VA-ES-BJ, 0.00017 µM	1.03
VA-ES-BJ, 0.00051 µM	1.02
VA-ES-BJ, 0.00152 µM	1.04
VA-ES-BJ, 0.00457 µM	1.04
VA-ES-BJ, 0.01372 µM	1.05
VA-ES-BJ, 0.04115 µM	1.08
VA-ES-BJ, 0.1235 µM	1.09
VA-ES-BJ, 0.3704 µM	1.11
VA-ES-BJ, 1.111 µM	0.961
VA-ES-BJ, 3.333 µM	0.466
VA-ES-BJ, 10 µM	0.108

— the supplement of paper PMC10883282
